Measured values published in patent publication US9586936B2, “Heteroarylamine derivatives as protein kinase inhibitors” (KOREA INSTITUTE OF SCIENCE AND TECHNOLOGY, priority 2014, dated 2017).

Legend:
[1] = in-vivo PK profile, mouse PK; details: ICR mice
Description: The in-vivo PK profile (mouse PK/ICR mice and rat PK/Sprague-Dawley rat) of N-(2,6-dichloro-3,5-dimethoxyphenyl)-1-(6-((4-(4-ethylpiperazin-1-yl)phenyl)amino)pyrimidin-4-yl)-1H-benz[d]imidazol-2-amine synthesized in Example 1 is as follows.

[2] = test system: bladder cancer cell line RT112; assay: inhibition of proliferation of cancer cells; type: cell-based; details: Homo sapiens, RT-112, read-out: Ability of inhibiting proliferation of RT112 (GI50)
Procedure: The ability of the compound of the present invention of inhibiting the proliferation of the bladder cancer cell line RT112 was determined as the GI50 value.

[3] = microsomal stability; type: in vitro ADME, Human; details: for microsomal stability (% at time): Human
Procedure: The microsomal stability of N-(2,6-dichloro-3,5-dimethoxyphenyl)-1-(6-((4-(4-ethylpiperazin-1-yl)phenyl)amino)pyrimidin-4-yl)-1H-benz[d]imidazol-2-amine synthesized in Example 1, as a representative compound of the present invention, was evaluated.

CCN1CCN(c2ccc(Nc3cc(-n4c(Nc5c(Cl)c(OC)cc(OC)c5Cl)nc5ccccc54)ncn3)cc2)CC1 [Example 1, N-(2,6-dichloro-3,5-dimethoxyphenyl)-1-(6-((4-(4-ethylpiperazin-1-yl)phenyl)amino)pyrimidin-4-yl)-1H-benz[d]imidazol-2-amine]
F* ([1]; PO 10 mg/kg): 23.44%
AUC(0-inf) ([1]; mouse, in vivo, IV 5 mg/kg): 0.35 µg·h/mL
AUC(0-t) ([1]; mouse, in vivo, IV 5 mg/kg): 0.322 µg·h/mL
Cmax ([1]; mouse, in vivo, IV 5 mg/kg): 0.111 µg/mL
Tmax ([1]; mouse, in vivo, IV 5 mg/kg): 0.083 h
clearance ([1]; mouse, in vivo, IV 5 mg/kg): 14.3 L/h/kg
half-life ([1]; mouse, in vivo, IV 5 mg/kg): 1.83 h
MRT inf ([1]; mouse, in vivo, IV 5 mg/kg, read-out: MRT(0-∞)): 3.56 h
Vd ([1]; mouse, in vivo, IV 5 mg/kg, read-out: Vz): 37.7 L/kg
AUC(0-t) ([1]; mouse, in vivo, PO 10 mg/kg): 0.151 µg·h/mL
Cmax ([1]; mouse, in vivo, PO 10 mg/kg): 0.0271 µg/mL
Tmax ([1]; mouse, in vivo, PO 10 mg/kg): 6 h
GI50 [2]: < 1 µM
microsomal stability (% at time) ([3]; 0 min): 100.00%
microsomal stability (% at time) ([3]; 5 min): 80.36%
microsomal stability (% at time) ([3]; 10 min): 76.63%
microsomal stability (% at time) ([3]; 15 min): 64.04%
microsomal stability (% at time) ([3]; 30 min): 51.45%
microsomal stability (% at time) ([3]; 45 min): 37.62%
microsomal stability (% at time) ([3]; 60 min): 36.17%
half-life ([3]; microsomes, Human microsomal stability): 0.566 h
